Source: patent US8410161B2, “Thioxanthone ring system derivatives” (National Defense Medical Center, priority 2010, dated 2013)
Where two headings read alike, the source gives them in different places.

Experiments:
[1] = tested on: SK-MEL-5; assay: NCI in vitro DTP human cell line screen, SK-MEL-5; format: cell-based; conditions: Melanoma, 1.00E−5 Molar
Description: (§1) Then, a cell toxicity assay of the cancer lines made by National Cancer Institute will be discussed as follows. The cell toxicity assay is performed by choosing ten compounds (existing certification numbers) from the 59 compounds disclosed in the present invention first.

[2] = tested on: SR; assay: NCI in vitro DTP human cell line screen, SR; format: cell-based; conditions: Leukemia, 1.00E−5 Molar
Description: as §1

[3] = tested on: HL-60(TB); assay: NCI in vitro DTP human cell line screen, HL-60(TB); format: cell-based; conditions: Leukemia, 1.00E−5 Molar
Description: as §1

[4] = tested on: COLO 205; assay: NCI in vitro DTP human cell line screen, COLO 205; format: cell-based; conditions: Colon Cancer, 1.00E−5 Molar
Description: as §1

[5] = tested on: BT-549; assay: NCI in vitro DTP human cell line screen, BT-549; format: cell-based; conditions: Breast Cancer, 1.00E−5 Molar
Description: as §1

[6] = tested on: TK-10; assay: NCI in vitro DTP human cell line screen, TK-10; format: cell-based; conditions: Renal Cancer, 1.00E−5 Molar
Description: as §1

[7] = tested on: HOP-62; assay: NCI in vitro DTP human cell line screen, HOP-62; format: cell-based; conditions: Non-Small Cell Lung Cancer, 1.00E−5 Molar
Description: as §1

[8] = tested on: ACHN; assay: NCI in vitro DTP human cell line screen, ACHN; format: cell-based; conditions: Renal Cancer, 1.00E−5 Molar
Description: as §1

[9] = tested on: SW-620; assay: NCI in vitro DTP human cell line screen, SW-620; format: cell-based; conditions: Colon Cancer, 1.00E−5 Molar
Description: as §1

[10] = tested on: UACC-257; assay: NCI in vitro DTP human cell line screen, UACC-257; format: cell-based; conditions: Melanoma, 1.00E−5 Molar
Description: as §1

[11] = tested on: SNB-75; assay: NCI in vitro DTP human cell line screen, SNB-75; format: cell-based; conditions: CNS Cancer, 1.00E−5 Molar
Description: as §1

[12] = tested on: NCI-H23; assay: NCI in vitro DTP human cell line screen, NCI-H23; format: cell-based; conditions: Non-Small Cell Lung Cancer, 1.00E−5 Molar
Description: as §1

[13] = tested on: SF-539; assay: NCI in vitro DTP human cell line screen, SF-539; format: cell-based; conditions: CNS Cancer, 1.00E−5 Molar
Description: as §1

[14] = tested on: SNB-19; assay: NCI in vitro DTP human cell line screen, SNB-19; format: cell-based; conditions: CNS Cancer, 1.00E−5 Molar
Description: as §1

[15] = tested on: 786-0; assay: NCI in vitro DTP human cell line screen, 786-0; format: cell-based; conditions: Renal Cancer, 1.00E−5 Molar
Description: as §1

[16] = tested on: HOP-92; assay: NCI in vitro DTP human cell line screen, HOP-92; format: cell-based; conditions: Non-Small Cell Lung Cancer, 1.00E−5 Molar
Description: as §1

[17] = tested on: NCI-H460; assay: NCI in vitro DTP human cell line screen, NCI-H460; format: cell-based; conditions: Non-Small Cell Lung Cancer, 1.00E−5 Molar
Description: as §1

[18] = tested on: HT29; assay: NCI in vitro DTP human cell line screen, HT29; format: cell-based; conditions: Colon Cancer, 1.00E−5 Molar
Description: as §1

[19] = tested on: A control cell lines; assay: MTT assay, A control cell lines (lung cancer cell); format: cell-based
Source text: Please refer to Table 1 and FIGS. 4A-4C. According to a MTT assay (Table 1), various cell viabilities of the A control cell lines can be obtained and illustrated in FIG. 4A while the compounds No. 2˜30 are used to treat A control cell lines, wherein A control cell lines are lung cancer cell.

[20] = tested on: M14; assay: NCI in vitro DTP human cell line screen, M14; format: cell-based; conditions: Melanoma, 1.00E−5 Molar
Description: as §1

[21] = tested on: UACC-62; assay: NCI in vitro DTP human cell line screen, UACC-62; format: cell-based; conditions: Melanoma, 1.00E−5 Molar
Description: as §1

[22] = tested on: RPMI-8226; assay: NCI in vitro DTP human cell line screen, RPMI-8226; format: cell-based; conditions: Leukemia, 1.00E−5 Molar
Description: as §1

[23] = tested on: LOX IMVI; assay: NCI in vitro DTP human cell line screen, LOX IMVI; format: cell-based; conditions: Melanoma, 1.00E−5 Molar
Description: as §1

[24] = tested on: RXF 393; assay: NCI in vitro DTP human cell line screen, RXF 393; format: cell-based; conditions: Renal Cancer, 1.00E−5 Molar
Description: as §1

[25] = tested on: NCI-H322M; assay: NCI in vitro DTP human cell line screen, NCI-H322M; format: cell-based; conditions: Non-Small Cell Lung Cancer, 1.00E−5 Molar
Description: as §1

[26] = tested on: SF-295; assay: NCI in vitro DTP human cell line screen, SF-295; format: cell-based; conditions: CNS Cancer, 1.00E−5 Molar
Description: as §1

[27] = tested on: DU145; assay: NCI in vitro DTP human cell line screen, DU145; format: cell-based; conditions: Prostate Cancer, 1.00E−5 Molar
Description: as §1

[28] = tested on: OVCAR-4; assay: NCI in vitro DTP human cell line screen, OVCAR-4; format: cell-based; conditions: Ovarian Cancer, 1.00E−5 Molar
Description: as §1

[29] = tested on: A3 cell lines; assay: MTT assay, A3 cell lines (lung cancer stem cell); format: cell-based
Source text: Please to FIG. 4B, various cell viabilities of the A3 cell lines can be obtained through the MTT assay and illustrated in FIG. 4B while the compounds No. 1˜30 are used to treat A3 cell lines, wherein A3 cell lines are lung cancer stem cell.

[30] = tested on: 60 cancer lines; assay: NCI cell toxicity assay of 60 cancer lines, whole panel summary; format: cell-based, human; conditions: 1.00E−5 Molar; for Growth Percent, Mean: mean over all cell lines; for cancer types with the better inhibition effect (in words): summary of Table 3
Description: as §1

[31] = tested on: UO-31; assay: NCI in vitro DTP human cell line screen, UO-31; format: cell-based; conditions: Renal Cancer, 1.00E−5 Molar
Description: as §1

[32] = tested on: PC-3; assay: NCI in vitro DTP human cell line screen, PC-3; format: cell-based; conditions: Prostate Cancer, 1.00E−5 Molar
Description: as §1

[33] = tested on: SK-MEL-2; assay: NCI in vitro DTP human cell line screen, SK-MEL-2; format: cell-based; conditions: Melanoma, 1.00E−5 Molar
Description: as §1

[34] = tested on: NCI/ADR-RES; assay: NCI in vitro DTP human cell line screen, NCI/ADR-RES; format: cell-based; conditions: Ovarian Cancer, 1.00E−5 Molar
Description: as §1

[35] = tested on: T-47D; assay: NCI in vitro DTP human cell line screen, T-47D; format: cell-based; conditions: Breast Cancer, 1.00E−5 Molar
Description: as §1

[36] = tested on: MCF7; assay: NCI in vitro DTP human cell line screen, MCF7; format: cell-based; conditions: Breast Cancer, 1.00E−5 Molar
Description: as §1

[37] = tested on: SF-268; assay: NCI in vitro DTP human cell line screen, SF-268; format: cell-based; conditions: CNS Cancer, 1.00E−5 Molar
Description: as §1

[38] = tested on: KM12; assay: NCI in vitro DTP human cell line screen, KM12; format: cell-based; conditions: Colon Cancer, 1.00E−5 Molar
Description: as §1

[39] = tested on: CAKI-1; assay: NCI in vitro DTP human cell line screen, CAKI-1; format: cell-based; conditions: Renal Cancer, 1.00E−5 Molar
Description: as §1

[40] = tested on: NCI-H226; assay: NCI in vitro DTP human cell line screen, NCI-H226; format: cell-based; conditions: Non-Small Cell Lung Cancer, 1.00E−5 Molar
Description: as §1

[41] = tested on: NCI-H522; assay: NCI in vitro DTP human cell line screen, NCI-H522; format: cell-based; conditions: Non-Small Cell Lung Cancer, 1.00E−5 Molar
Description: as §1

[42] = tested on: MDA-MB-435; assay: NCI in vitro DTP human cell line screen, MDA-MB-435; format: cell-based; conditions: Melanoma, 1.00E−5 Molar
Description: as §1

[43] = tested on: HCT-116; assay: NCI in vitro DTP human cell line screen, HCT-116; format: cell-based; conditions: Colon Cancer, 1.00E−5 Molar
Description: as §1

[44] = tested on: K562; assay: NCI in vitro DTP human cell line screen, K562; format: cell-based; conditions: Leukemia, 1.00E−5 Molar
Description: as §1

[45] = tested on: MOLT-4; assay: NCI in vitro DTP human cell line screen, MOLT-4; format: cell-based; conditions: Leukemia, 1.00E−5 Molar
Description: as §1

[46] = tested on: SN12C; assay: NCI in vitro DTP human cell line screen, SN12C; format: cell-based; conditions: Renal Cancer, 1.00E−5 Molar
Description: as §1

[47] = tested on: SK-MEL-28; assay: NCI in vitro DTP human cell line screen, SK-MEL-28; format: cell-based; conditions: Melanoma, 1.00E−5 Molar
Description: as §1

[48] = tested on: EKVX; assay: NCI in vitro DTP human cell line screen, EKVX; format: cell-based; conditions: Non-Small Cell Lung Cancer, 1.00E−5 Molar
Description: as §1

[49] = summary of MTT cell viabilities

## CCCSc1ccc2c(=O)c3ccccc3sc2c1Cl [No. 3, 4-Chloro-3-(propylthio)-9H-thioxanthen-9-one]
[1]
  Growth Percent: 98.20%
[2]
  Growth Percent: 75.26%
[3]
  Growth Percent: 118.59%
[4]
  Growth Percent: 92.63%
[5]
  Growth Percent: 93.64%
[6]
  Growth Percent: 103.80%
[7]
  Growth Percent: 105.09%
[8]
  Growth Percent: 74.17%
[9]
  Growth Percent: 87.67%
[10]
  Growth Percent: 98.85%
[11]
  Growth Percent: 100.85%
[12]
  Growth Percent: 91.47%
[13]
  Growth Percent: 82.48%
[14]
  Growth Percent: 94.29%
[15]
  Growth Percent: 101.51%
[16]
  Growth Percent: 98.11%
[17]
  Growth Percent: 59.83%
[18]
  Growth Percent: 103.50%
[19]
  cell viabilities of A control cell lines (MTT assay): 84.8 ± 2.95%
[20]
  Growth Percent: 102.38%
[21]
  Growth Percent: 84.56%
[22]
  Growth Percent: 104.20%
[23]
  Growth Percent: 64.69%
[24]
  Growth Percent: 106.97%
[25]
  Growth Percent: 73.70%
[26]
  Growth Percent: 82.14%
[27]
  Growth Percent: 91.93%
[28]
  Growth Percent: 73.74%
[29]
  cell viabilities of A3 cell lines (MTT assay): 103 ± 10.2%
[30]
  Growth Percent, Mean: 91.31%
  cancer types with the better inhibition effect (in words): better inhibition effect on non-small cell lung cancer
[31]
  Growth Percent: 99.45%
[32]
  Growth Percent: 94.80%
[33]
  Growth Percent: 114.59%
[34]
  Growth Percent: 93.97%
[35]
  Growth Percent: 98.14%
[36]
  Growth Percent: 97.13%
[37]
  Growth Percent: 80.00%
[38]
  Growth Percent: 86.73%
[39]
  Growth Percent: 78.97%
[40]
  Growth Percent: 94.52%
[41]
  Growth Percent: 94.37%
[42]
  Growth Percent: 80.72%
[43]
  Growth Percent: 61.89%
[44]
  Growth Percent: 94.26%
[45]
  Growth Percent: 94.70%
[46]
  Growth Percent: 85.72%
[47]
  Growth Percent: 104.13%
[48]
  Growth Percent: 96.42%

## O=c1c2ccccc2sc2c(Cl)c(SCc3ccccc3)ccc12 [No. 23, 3-(Benzylthio)-4-chloro-9H-thioxanthen-9-one]
[1]
  Growth Percent: 99.73%
[2]
  Growth Percent: 36.57%
[3]
  Growth Percent: 115.59%
[4]
  Growth Percent: 63.36%
[5]
  Growth Percent: 84.98%
[6]
  Growth Percent: 95.49%
[7]
  Growth Percent: 94.64%
[8]
  Growth Percent: 26.15%
[9]
  Growth Percent: 69.53%
[10]
  Growth Percent: 109.84%
[11]
  Growth Percent: 75.12%
[12]
  Growth Percent: 97.59%
[13]
  Growth Percent: 102.89%
[14]
  Growth Percent: 83.57%
[15]
  Growth Percent: 78.53%
[16]
  Growth Percent: 74.60%
[17]
  Growth Percent: 29.14%
[18]
  Growth Percent: 60.70%
[19]; A control, lung cancer cell
  cell viabilities of A control cell lines (MTT assay): 36.6%
[19]; [49]
  inhibition effect on A control cell line (in words): inhibition effect
[20]
  Growth Percent: 102.67%
[21]
  Growth Percent: 90.92%
[22]
  Growth Percent: 89.98%
[23]
  Growth Percent: 62.94%
[24]
  Growth Percent: 106.84%
[25]
  Growth Percent: 70.18%
[26]
  Growth Percent: 63.22%
[27]
  Growth Percent: 107.70%
[28]
  Growth Percent: 15.10%
[29]; A3, lung cancer stem cell
  cell viabilities of A3 cell lines (MTT assay): 65.9%
[29]; [49]
  inhibition effect on A3 cell line (in words): inhibition effect
[30]
  Growth Percent, Mean: 81.22%
  cancer types with the better inhibition effect (in words): better inhibition effect on Leukemia, non-small cell lung cancer, colorectal cancer, central nervous system cancer, ovarian cancer and kidney cancer
[31]
  Growth Percent: 66.76%
[32]
  Growth Percent: 83.92%
[33]
  Growth Percent: 116.81%
[34]
  Growth Percent: 90.62%
[35]
  Growth Percent: 82.55%
[36]
  Growth Percent: 89.62%
[37]
  Growth Percent: 100.29%
[38]
  Growth Percent: 104.90%
[39]
  Growth Percent: 54.75%
[40]
  Growth Percent: 90.97%
[41]
  Growth Percent: 95.48%
[42]
  Growth Percent: 91.01%
[43]
  Growth Percent: 41.74%
[44]
  Growth Percent: 86.95%
[45]
  Growth Percent: 98.34%
[46]
  Growth Percent: 79.25%
[47]
  Growth Percent: 119.10%
[48]
  Growth Percent: 93.46%
